Consider 3 compounds from patent US20250057958A1, “CYTOTOXICITY TARGETING CHIMERAS FOR CCR2-EXPRESSING CELLS” (GLAXOSMITHKLINE INTELLECTUAL PROPERTY DEVELOPMENT LIMITED, priority 2022, published 2025).

Structures are written as SMILES. Some results are limits rather than exact numbers.

For assay [1], the target named is T1, CHOK1 cells engineered to overexpress human CCR2 (Homo sapiens, UniProt P41597).
T1 construct: expressed in transfected cells; host or cells: CHOK1 cells
The assay is described as follows: Antibody dependent cellular cytotoxicity (ADCC) reporter assay. The format is cell-based. Particulars: with anti-cotinine antibody (SEQ ID NO: 11/12, human IgG1 Fc S239D/I332E); Jurkat FcγRIIIa NFAT-luciferase reporter cells; 12-18 hours; average if more than one run; read-out: ADCC Reporter Assay pEC50 (converted). On the procedure: An antibody dependent cellular cytoxocity reporter assay was conducted using the following four assay components: (i) ARM compound of Formula (I) targeting CCR2 (concentrations ranging from 1 pM to 10 μM) (ii) anti-cotinine antibody having a heavy chain sequence of SEQ ID NO: 11 and a light chain sequence of SEQ ID NO: 12 (rabbit variable region with human IgG1 Fc domain containing a DE mutation (S239D/I332E)) (concentrations ranging from 0.01 μg/mL to 200 μg/mL); (iii) target cells: CHOK1 cells engineered to overexpress either human CCR2 (typically 1000-20,000 cells perwell) and (iv) reporter cells: Jurkat cells engineered to express FcγRIIIa with the reporter gene luciferase under the control of the NFAT promoter (typically 3000-75,000 cells per well). Reagents were combined in a final volume of 20 μL in a 384—well tissue culture treated plate. All four assay components were incubated together for about 12-18 hours. Thereafter, BioGlo Detection reagent (Promega) was added to the wells to lyse the cells and provide a substrate for the luciferase reporter protein. Luminescence signal was measured on a microplate reader and signal:background was calculated by dividing the signal of a test well by the signal obtained when no ARM compound of Formula (I) was added. EC50 calculations were done using Graphpad Prism Software, specifically a nonlinear regression curve fit (Y=Bottom+(Top−Bottom)/(1+10 ^((Log EC50−X)*HillSlope))).
ARMs compounds of Formula (I) of the invention were tested for ADCC activity in the above assay in or more experimental runs and the results are shown in Table 3 below. Potency of the compounds of Formula (I) of the invention is reported as a pEC50 value. The pEC50 value is the negative log of the EC50 value, wherein the EC50 value is the half maximal effective concentration measured in molar (M). For compounds tested in more than one experimental run, the pEC50 value is reported as an average.
(In general: In a reporter assay the amount or activity of a reporter protein is the signal.)

The target of assay [2] is human alpha1 nicotinic acetylcholine (nACh) receptor (Homo sapiens, UniProt P02708+Q07001). The assay is described as follows: Nicotinic acetylcholine receptor antagonism assay (IONFlux automated patch clamp). The format is cell-based. Particulars: for Emax at 33.3 µM: maximum percentage antagonism at highest concentration tested, read-out: Maximum Response (%); for IC50: nAChR antagonism, stimulated with ACh, average if more than one run. From the text:
Cells expressing human alpha1 nicotinic acetylcholine (nACh) receptor (nAChR) were washed and dissociated using Trypsin containing buffer. Cells were then washed and seeded at a density of 3-5 million cells/mL and allowed to grow for 3 days. […] The receptor was then stimulated via addition of acetylcholine (ACh) and activation of the receptor was monitored via the IONFlux automated patch clamp system. IonFlux Data Analyzer software was utilized to perform leak subtraction and measure (min) peak current amplitude.
Data processing: (1) Current values recorded for vehicle only applications in individual traps/patterns were subtracted from corresponding current amplitude values for control, test article and control+test article. (2) Control response was calculated as % of the average response of the 3rd out of total 3 ACh (10 mM) applications alone. In rare situations, if the 3rd ACh response was obscured due to technical artifacts, the 2nd and/or 1st ACh (10 mM) application was considered as control. The peak current amplitude generated in the presence of each test article concentration was then used to calculate the % inhibition as compared to control response (10 mM ACh alone). These estimates were further corrected for vehicle response and run down corrected by normalizing with time matched control responses (10 mM ACh alone). The corrected percentages were then fit with a non-linear function in GraphPad Prism 6 (or later versions) to determine the IC50.
Exclusion criteria: (i) any n's with poor recording quality, (ii) control current amplitude <500 pA or (iii) significant outliers, as determined by the Grubbs' test.
ARMs compounds of Formula (I) of the invention were tested for antagonism of the nAChR in the above assay in […] experimental runs and the results are shown in Table 5 below. Antagonistic activity of the compounds of Formula (I) of the invention is reported as an IC50 value (half maximal inhibitory concentration) and the maximum percentage antagonism observed at the highest concentration of compound of Formula (I) tested, as indicated in Table 5. For compounds tested in more than one experimental run, the IC50 value is reported as an average.

Sequence of human alpha1 nicotinic acetylcholine (nACh) receptor (P02708 21-457): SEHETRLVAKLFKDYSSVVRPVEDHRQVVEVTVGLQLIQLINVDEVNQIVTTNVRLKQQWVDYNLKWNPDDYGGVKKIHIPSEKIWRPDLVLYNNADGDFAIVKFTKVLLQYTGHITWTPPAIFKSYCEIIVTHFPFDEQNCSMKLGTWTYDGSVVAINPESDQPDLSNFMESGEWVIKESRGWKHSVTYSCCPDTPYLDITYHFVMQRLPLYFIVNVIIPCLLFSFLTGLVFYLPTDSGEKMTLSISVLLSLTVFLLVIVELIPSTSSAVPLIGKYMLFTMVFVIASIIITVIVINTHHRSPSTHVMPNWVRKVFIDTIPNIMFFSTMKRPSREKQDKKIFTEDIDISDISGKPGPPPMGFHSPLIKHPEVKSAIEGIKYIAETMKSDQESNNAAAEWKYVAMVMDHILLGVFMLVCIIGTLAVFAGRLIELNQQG
Sequence of human alpha1 nicotinic acetylcholine (nACh) receptor (P11230 24-501 partner): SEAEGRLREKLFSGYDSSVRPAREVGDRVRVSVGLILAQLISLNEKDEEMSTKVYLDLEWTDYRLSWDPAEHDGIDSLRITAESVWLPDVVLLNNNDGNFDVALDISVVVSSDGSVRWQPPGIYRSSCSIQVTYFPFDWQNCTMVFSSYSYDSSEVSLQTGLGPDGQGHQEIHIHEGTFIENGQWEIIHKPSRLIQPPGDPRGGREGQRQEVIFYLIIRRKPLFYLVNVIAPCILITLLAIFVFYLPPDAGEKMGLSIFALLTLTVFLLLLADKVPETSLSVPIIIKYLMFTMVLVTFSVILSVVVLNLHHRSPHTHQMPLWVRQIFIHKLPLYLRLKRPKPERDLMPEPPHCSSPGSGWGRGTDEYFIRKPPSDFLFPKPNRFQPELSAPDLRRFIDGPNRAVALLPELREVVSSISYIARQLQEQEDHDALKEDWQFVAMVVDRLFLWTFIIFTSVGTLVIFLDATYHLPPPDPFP
Sequence of human alpha1 nicotinic acetylcholine (nACh) receptor (Q07001 22-517): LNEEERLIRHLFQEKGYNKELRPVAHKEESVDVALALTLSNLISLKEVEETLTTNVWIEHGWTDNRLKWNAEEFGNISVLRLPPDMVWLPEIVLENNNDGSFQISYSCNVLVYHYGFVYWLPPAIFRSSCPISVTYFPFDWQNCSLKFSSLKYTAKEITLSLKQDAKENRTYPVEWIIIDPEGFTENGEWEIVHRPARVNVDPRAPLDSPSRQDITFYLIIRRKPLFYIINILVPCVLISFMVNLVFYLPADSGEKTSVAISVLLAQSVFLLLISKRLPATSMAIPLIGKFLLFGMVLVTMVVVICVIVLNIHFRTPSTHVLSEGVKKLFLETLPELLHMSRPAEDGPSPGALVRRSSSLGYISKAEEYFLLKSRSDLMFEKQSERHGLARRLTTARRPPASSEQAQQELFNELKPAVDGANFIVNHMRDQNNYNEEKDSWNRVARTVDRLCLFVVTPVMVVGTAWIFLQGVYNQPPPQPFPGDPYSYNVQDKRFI

Turning to `CC(=O)N[C@@H]1C[C@H](NC(C)(C)C)CC[C@@H]1N1CC[C@H](Nc2nc(CCCCNC(=O)[C@H]3CC[C@H](NC(=O)CCCO[C@H]4CC[C@H](OCCNC(=O)[C@H]5CC(=O)N(C)[C@@H]5c5cccnc5)CC4)CC3)nc3ccc(C(F)(F)F)cc23)C1=O` [Example 3, (2S,3S)-N-(2-(((1R,4S)-4-(4-(((1S,4R)-4-((4-(4-(((S)-1-((1S,2R,4R)-2-Acetamido-4-(tert-butylamino)cyclohexyl)-2-oxopyrrolidin-3-yl)amino)-6-(trifluoromethyl)quinazolin-2-yl)butyl)carbamoyl)cyclohexyl)amino)-4-oxobutoxy)cyclohexyl)oxy)ethyl)-1-methyl-5-oxo-2-(pyridin-3-yl)pyrrolidine-3-carboxamide], the EC50 in assay [1] is 0.158 nM. Also, in assay [2], the Emax at 33.3 µM was found to be 38% and the IC50 (usually the point on the concentration scale where inhibition reaches its midpoint) is > 33300 nM.

On to `CC(=O)N[C@@H]1C[C@H](NC(C)(C)C)CC[C@@H]1N1CC[C@H](Nc2nc([C@H]3CC[C@@H](NC(=O)[C@H]4CC[C@H](NC(=O)CCCO[C@H]5CC[C@H](OCCNC(=O)[C@H]6CC(=O)N(C)[C@@H]6c6cccnc6)CC5)CC4)CC3)nc3ccc(C(F)(F)F)cc23)C1=O` [Example 10, (2S,3S)-N-(2-(((1R,4S)-4-(4-(((1R,4R)-4-(((1R,4S)-4-(4-(((S)-1-((1S,2R,4R)-2-Acetamido-4-(tert-butylamino)cyclohexyl)-2-oxopyrrolidin-3-yl)amino)-6-(trifluoromethyl)quinazolin-2-yl)cyclohexyl)carbamoyl)cyclohexyl)amino)-4-oxobutoxy)cyclohexyl)oxy)ethyl)-1-methyl-5-oxo-2-(pyridin-3-yl)pyrrolidine-3-carboxamide], for which the EC50 in assay [1] was 0.251 nM. For the same compound, in assay [2], the Emax at 33.3 µM turned out to be 28% and the IC50 is > 33300 nM.

On to `CC(=O)N[C@@H]1C[C@H](NC(C)(C)C)CC[C@@H]1N1CC[C@H](Nc2nc([C@H]3CC[C@H](NC(=O)[C@H]4CC[C@H](NC(=O)CCCO[C@H]5CC[C@H](OCCNC(=O)[C@H]6CC(=O)N(C)[C@@H]6c6cccnc6)CC5)CC4)CC3)nc3ccc(C(F)(F)F)cc23)C1=O` [Example 11, (2S,3S)-N-(2-(((1R,4S)-4-(4-(((1S,4R)-4-(((1S,4R)-4-(4-(((S)-1-((1S,2R,4R)-2-Acetamido-4-(tert-butylamino)cyclohexyl)-2-oxopyrrolidin-3-yl)amino)-6-(trifluoromethyl)quinazolin-2-yl)cyclohexyl)carbamoyl)cyclohexyl)amino)-4-oxobutoxy)cyclohexyl)oxy)ethyl)-1-methyl-5-oxo-2-(pyridin-3-yl)pyrrolidine-3-carboxamide], for which the EC50 in assay [1] is 0.158 nM. Moreover, in assay [2], the Emax at 33.3 µM is 47% and the IC50 is > 33300 nM.
